The experiment has as its target T1, αβγ-hENaC (Homo sapiens, UniProt P37088+P51168+P51170).
T1 construct: expressed in transfected cells; host or cells: HEK-293
T1 sequence (P37088 1-669): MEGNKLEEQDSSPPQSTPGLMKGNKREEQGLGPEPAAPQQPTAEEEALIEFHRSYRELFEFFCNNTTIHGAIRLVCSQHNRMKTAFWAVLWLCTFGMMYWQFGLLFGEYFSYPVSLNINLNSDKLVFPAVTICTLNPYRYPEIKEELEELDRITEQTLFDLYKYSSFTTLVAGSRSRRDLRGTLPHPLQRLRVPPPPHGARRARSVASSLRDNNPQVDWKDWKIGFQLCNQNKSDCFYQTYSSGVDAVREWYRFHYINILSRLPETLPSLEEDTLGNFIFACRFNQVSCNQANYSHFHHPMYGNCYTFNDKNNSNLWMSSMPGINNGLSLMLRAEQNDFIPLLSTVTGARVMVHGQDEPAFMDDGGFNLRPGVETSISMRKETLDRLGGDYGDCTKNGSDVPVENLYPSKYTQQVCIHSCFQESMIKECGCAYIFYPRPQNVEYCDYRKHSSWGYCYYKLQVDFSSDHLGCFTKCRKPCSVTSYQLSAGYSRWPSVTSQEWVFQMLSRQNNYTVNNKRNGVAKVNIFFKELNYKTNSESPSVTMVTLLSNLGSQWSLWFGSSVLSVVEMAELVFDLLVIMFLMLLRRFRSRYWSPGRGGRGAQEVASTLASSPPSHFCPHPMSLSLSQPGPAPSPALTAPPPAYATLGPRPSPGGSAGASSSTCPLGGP
T1 sequence (P51168 1-640 partner): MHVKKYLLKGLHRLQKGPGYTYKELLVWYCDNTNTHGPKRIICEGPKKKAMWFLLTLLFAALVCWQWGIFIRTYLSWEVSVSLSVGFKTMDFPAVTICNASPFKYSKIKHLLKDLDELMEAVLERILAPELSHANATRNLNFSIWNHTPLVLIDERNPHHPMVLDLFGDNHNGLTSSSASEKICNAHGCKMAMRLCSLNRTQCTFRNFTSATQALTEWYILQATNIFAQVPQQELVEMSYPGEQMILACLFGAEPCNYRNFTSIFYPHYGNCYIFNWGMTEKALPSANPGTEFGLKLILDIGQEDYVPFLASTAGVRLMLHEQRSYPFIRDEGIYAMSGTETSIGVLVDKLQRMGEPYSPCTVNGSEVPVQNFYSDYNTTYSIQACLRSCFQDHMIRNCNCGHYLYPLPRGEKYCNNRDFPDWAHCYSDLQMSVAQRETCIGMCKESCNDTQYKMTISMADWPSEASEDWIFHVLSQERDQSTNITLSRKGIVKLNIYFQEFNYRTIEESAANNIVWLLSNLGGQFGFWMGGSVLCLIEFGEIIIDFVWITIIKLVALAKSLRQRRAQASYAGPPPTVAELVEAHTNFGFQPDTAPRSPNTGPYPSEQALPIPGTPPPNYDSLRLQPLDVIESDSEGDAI
T1 sequence (P51170 1-649 partner): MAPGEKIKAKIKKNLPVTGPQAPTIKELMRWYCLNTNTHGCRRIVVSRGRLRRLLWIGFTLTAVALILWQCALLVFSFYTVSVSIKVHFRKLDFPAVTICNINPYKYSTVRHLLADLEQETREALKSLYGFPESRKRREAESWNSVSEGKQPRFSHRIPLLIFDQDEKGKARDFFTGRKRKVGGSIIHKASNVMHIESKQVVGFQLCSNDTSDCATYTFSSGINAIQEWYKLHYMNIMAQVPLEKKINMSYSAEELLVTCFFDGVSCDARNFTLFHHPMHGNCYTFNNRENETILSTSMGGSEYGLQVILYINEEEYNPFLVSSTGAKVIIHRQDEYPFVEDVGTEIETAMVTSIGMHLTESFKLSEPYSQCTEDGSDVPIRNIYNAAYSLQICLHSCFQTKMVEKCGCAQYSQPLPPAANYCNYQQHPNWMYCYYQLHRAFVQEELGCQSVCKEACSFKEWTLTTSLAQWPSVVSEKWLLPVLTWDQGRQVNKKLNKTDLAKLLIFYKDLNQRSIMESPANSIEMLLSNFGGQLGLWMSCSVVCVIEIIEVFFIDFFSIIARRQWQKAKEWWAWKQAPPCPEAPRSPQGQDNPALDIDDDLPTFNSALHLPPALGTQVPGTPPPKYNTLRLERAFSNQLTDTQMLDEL
The experiment is described as follows: Whole-cell patch clamp, WT αβγ-hENaC. The format is cell-based. The following applies: exposure time, WT αβγ-ENaC (Figure 1). How it is done: Point mutations of α-, β-, γ- and δ-hENaC and PHA1B frameshift mutations of α-hENaC were prepared with the QuikChange Lightning Site-Directed Mutagenesis Kit (Agilent Technologies, CA, USA). Mutagenic primers were designed individually with the Primer Design Program provided on the producer’s website or for the frameshift mutations the same base changes as reported in patients (see Table 2) were performed. Primers were ordered from Sigma-Aldrich, Vienna, Austria.
HEK-293 cells were transfected 1 day after cell seeding using X-tremeGENE HP DNA transfection reagent (Roche Diagnostics, Mannheim, Germany) according to the manufacturer’s protocol. A set of WT or mutant αβγ- or δβγ-hENaC, or α-, β-, γ-, or δ-hENaC alone was used, and the ratio of DNA to transfection reagent was 1:3. The expression was highest 48–72 h after transfection.
Electrophysiological experiments were performed as described in detail by Shabbir et al. ([16]). […] Currents were recorded with the patch clamp method in the whole-cell mode. The chamber contained 1 ml of the bath solution of the following composition (in mM): 145 NaCl, 2.7 KCl, 1.8 CaCl2, 2 MgCl2, 5.5 glucose, and 10 HEPES, adjusted to pH 7.4 with 1 M NaOH solution. Micropipettes were pulled from thin-walled borosilicate glass capillaries (Harvard Apparatus, Holliston, MA, USA) with a DMZ Zeitz Puller to obtain electrode resistances ranging from 2 to 5 MΩ. The pipette solution contained (in millimolars): 135 potassium methane sulfonate, 10 KCl, 6 NaCl, 1 Mg2ATP, 2 Na3ATP, 10 HEPES, and 0.5 EGTA, adjusted to pH 7.2 with 1 M KOH solution. Chemicals for pipette and bathing solutions were supplied by Sigma-Aldrich (Vienna, Austria). Electrophysiological measurements were carried out with an Axopatch 200B patch clamp amplifier (Axon Instruments, CA, USA). Capacity transients were canceled, and series resistance was compensated. Whole-cell currents were filtered at 5 kHz and sampled at 10 kHz. Data acquisition and storage were processed directly to a PC equipped with pCLAMP 10.2 software (Axon Instruments, CA, USA). […]
In general terms: Patch clamp records ionic current or voltage across a cell membrane.

On to `C[C@@H]1NC(=O)CNC(=O)[C@H](CCC(=O)O)NC(=O)[C@@H]2CCCN2C(=O)[C@H]([C@@H](C)O)NC(=O)[C@H](CCC(=O)O)NC(=O)[C@H](CCCNC(=N)N)NC(=O)[C@H](CCC(N)=O)NC(=O)CNC(=O)[C@@H](N)CSSC[C@@H](C(=O)O)NC(=O)[C@H](Cc2ccc(O)cc2)NC(=O)[C@H](Cc2c[nH]c3ccccc23)NC(=O)[C@@H]2CCCN2C(=O)[C@H](CCCCN)NC(=O)[C@H](C)NC(=O)[C@H](CCC(=O)O)NC1=O` [solnatide, L-cysteine, L-cysteinylglycyl-L-glutaminyl-L-arginyl-L-α-glutamyl-L-threonyl-L-prolyl-L-α-glutamylglycyl-L-alanyl-L-α-glutamyl-L-alanyl-L-lysyl-L-prolyl-L-tryptophyl-L-tyrosyl-, cyclic (1→17)-disulfide], for which the “Time to maximal stimulatory effect” value is ~ 2 min.

(Values after PMC5447021, “TNF Lectin-Like Domain Restores Epithelial Sodium Channel Function in Frameshift Mutants Associated with Pseudohypoaldosteronism Type 1B” (Frontiers in Immunology, 2017).)
